According to ChEMBL document CHEMBL1201862, “PubChem BioAssay data set” (2004):
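Dose response: 5 concentrations. Exposure: 48 h. Format: 96-well plates. Endpoint: linear interpolation; highest concentration if not reached. The concentration for 50% growth inhibition is given as GI50.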 The source made the active and inactive calls. No stated cut-off is given here; in the data, active = GI50 up to about 1.1 µM and inactive = higher.

Columns and labels:
Assay in all cases: NCI tumour cell line growth inhibition, 48 h
RXF 393 = tested on: RXF 393
PC-3 = tested on: PC-3
OVCAR-8 = tested on: OVCAR-8
DU-145 = tested on: DU-145
SNB-78 = tested on: SNB-78
OVCAR-3 = tested on: OVCAR-3
SK-OV-3 = tested on: SK-OV-3
SK-MEL-2 = tested on: SK-MEL-2
CAKI-1 = tested on: CAKI-1
MDA-MB-231 = tested on: MDA-MB-231
HOP-92 = tested on: HOP-92
BT-549 = tested on: BT-549
OVCAR-4 = tested on: OVCAR-4
ACHN = tested on: ACHN
HT-29 = tested on: HT-29
DMS-273 = tested on: DMS-273
U-251 = tested on: U-251
NCI-H522 = tested on: NCI-H522
SNB-19 = tested on: SNB-19
A549 = tested on: A549
NCI-H23 = tested on: NCI-H23
SR = tested on: SR
MOLT-4 = tested on: MOLT-4
SF-539 = tested on: SF-539
IGROV-1 = tested on: IGROV-1
M14 = tested on: M14
CCRF-CEM = tested on: CCRF-CEM
Hs-578T = tested on: Hs-578T
TK-10 = tested on: TK-10
LOX IMVI = tested on: LOX IMVI
KM-20L2 = tested on: KM-20L2
DMS-114 = tested on: DMS-114
T47D = tested on: T47D
UACC-62 = tested on: UACC-62
SF-268 = tested on: SF-268
K562 = tested on: K562
UACC-257 = tested on: UACC-257
SK-MEL-28 = tested on: SK-MEL-28
Malme-3M = tested on: Malme-3M
HOP-18 = tested on: HOP-18
UO-31 = tested on: UO-31
SK-MEL-5 = tested on: SK-MEL-5
HCC 2998 = tested on: HCC 2998
KM12 = tested on: KM12
DLD-1 = tested on: DLD-1
A498 = tested on: A498
EKVX = tested on: EKVX
SNB-75 = tested on: SNB-75
XF498 = tested on: XF498
SF-295 = tested on: SF-295
OVCAR-5 = tested on: OVCAR-5
786-0 = tested on: 786-0
MDA-MB-435 = tested on: MDA-MB-435
HL-60 = tested on: HL-60
SW-620 = tested on: SW-620
SN12C = tested on: SN12C
NCI-H226 = tested on: NCI-H226
NCI/ADR-RES = tested on: NCI/ADR-RES
RPMI-8226 = tested on: RPMI-8226
MCF7 = tested on: MCF7
M19-MEL = tested on: M19-MEL
NCI-H460 = tested on: NCI-H460
MDA-N = tested on: MDA-N
HCT-15 = tested on: HCT-15
HOP-62 = tested on: HOP-62
COLO 205 = tested on: COLO 205
HCT-116 = tested on: HCT-116
LXFL 529 = tested on: LXFL 529

COc1ccccc1/C=C1\CCC(CN(C)C)C1=O (configuration not stated)
GI50 (RXF 393): 3.84 µM (inactive)
GI50 (PC-3): 8.05 µM (inactive)
GI50 (OVCAR-8): 5.78 µM (inactive)
GI50 (DU-145): 11.8 µM (inactive)
GI50 (SNB-78): 9.4 µM (inactive)
GI50 (OVCAR-3): 5.38 µM (inactive)
GI50 (SK-OV-3): 19.4 µM (inactive)
GI50 (SK-MEL-2): 8.51 µM (inactive)
GI50 (CAKI-1): 5.6 µM (inactive)
GI50 (MDA-MB-231): 2.43 µM (inactive)
GI50 (HOP-92): 2.99 µM (inactive)
GI50 (BT-549): 13.3 µM (inactive)
GI50 (OVCAR-4): 6.92 µM (inactive)
GI50 (ACHN): 8.02 µM (inactive)
GI50 (HT-29): 4.89 µM (inactive)
GI50 (DMS-273): 6.9 µM (inactive)
GI50 (U-251): 11.1 µM (inactive)
GI50 (NCI-H522): 1.85 µM (inactive)
GI50 (SNB-19): 17.1 µM (inactive)
GI50 (A549): 20.1 µM (inactive)
GI50 (NCI-H23): 10.8 µM (inactive)
GI50 (SR): 6.15 µM (inactive)
GI50 (MOLT-4): 4.61 µM (inactive)
GI50 (SF-539): 7.41 µM (inactive)
GI50 (IGROV-1): 13.3 µM (inactive)
GI50 (M14): 3.64 µM (inactive)
GI50 (CCRF-CEM): 1.5 µM (inactive)
GI50 (Hs-578T): 9.86 µM (inactive)
GI50 (TK-10): 5.73 µM (inactive)
GI50 (LOX IMVI): 2.14 µM (inactive)
GI50 (KM-20L2): 4.24 µM (inactive)
GI50 (DMS-114): 2.75 µM (inactive)
GI50 (T47D): 3.58 µM (inactive)
GI50 (UACC-62): 4.21 µM (inactive)
GI50 (SF-268): 10.6 µM (inactive)
GI50 (K562): 2.28 µM (inactive)
GI50 (UACC-257): 10.8 µM (inactive)
GI50 (SK-MEL-28): 4.36 µM (inactive)
GI50 (Malme-3M): 6.19 µM (inactive)
GI50 (HOP-18): 22.9 µM (inactive)
GI50 (UO-31): 7.74 µM (inactive)
GI50 (SK-MEL-5): 12.4 µM (inactive)
GI50 (HCC 2998): 5.21 µM (inactive)
GI50 (KM12): 3.75 µM (inactive)
GI50 (DLD-1): 2.2 µM (inactive)
GI50 (A498): 19.3 µM (inactive)
GI50 (EKVX): 15 µM (inactive)
GI50 (SNB-75): 8.49 µM (inactive)
GI50 (XF498): 18.3 µM (inactive)
GI50 (SF-295): 15.2 µM (inactive)
GI50 (OVCAR-5): 12.7 µM (inactive)
GI50 (786-0): 2.16 µM (inactive)
GI50 (MDA-MB-435): 8.83 µM (inactive)
GI50 (HL-60): 1.49 µM (inactive)
GI50 (SW-620): 2.58 µM (inactive)
GI50 (SN12C): 2.48 µM (inactive)
GI50 (NCI-H226): 11.4 µM (inactive)
GI50 (NCI/ADR-RES): 7.24 µM (inactive)
GI50 (RPMI-8226): 2.05 µM (inactive)
GI50 (MCF7): 2.12 µM (inactive)
GI50 (M19-MEL): 2.78 µM (inactive)
GI50 (NCI-H460): 19.6 µM (inactive)
GI50 (MDA-N): 4.09 µM (inactive)
GI50 (HCT-15): 2.75 µM
GI50 (HOP-62): 19.5 µM (inactive)
GI50 (COLO 205): 2.25 µM (inactive)
GI50 (HCT-116): 3.48 µM (inactive)

C/N=c1\ss/c(=N\C(=S)N(C)C)n1C
GI50 (RXF 393): > 100 µM (inactive)
GI50 (OVCAR-8): > 100 µM (inactive)
GI50 (SNB-78): > 100 µM (inactive)
GI50 (SK-OV-3): > 100 µM (inactive)
GI50 (SK-MEL-2): > 100 µM (inactive)
GI50 (CAKI-1): > 100 µM (inactive)
GI50 (HOP-92): > 100 µM (inactive)
GI50 (OVCAR-4): > 100 µM (inactive)
GI50 (ACHN): > 100 µM (inactive)
GI50 (HT-29): > 100 µM (inactive)
GI50 (DMS-273): > 100 µM (inactive)
GI50 (U-251): > 100 µM (inactive)
GI50 (LXFL 529): > 100 µM (inactive)
GI50 (SNB-19): > 100 µM (inactive)
GI50 (A549): > 100 µM (inactive)
GI50 (NCI-H23): > 100 µM (inactive)
GI50 (SR): > 100 µM (inactive)
GI50 (MOLT-4): > 100 µM (inactive)
GI50 (SF-539): > 100 µM (inactive)
GI50 (IGROV-1): > 100 µM (inactive)
GI50 (M14): > 100 µM (inactive)
GI50 (CCRF-CEM): > 100 µM (inactive)
GI50 (TK-10): 41.1 µM (inactive)
GI50 (KM-20L2): > 100 µM (inactive)
GI50 (DMS-114): > 100 µM (inactive)
GI50 (UACC-62): > 100 µM (inactive)
GI50 (SF-268): > 100 µM (inactive)
GI50 (K562): > 100 µM (inactive)
GI50 (UACC-257): > 100 µM (inactive)
GI50 (SK-MEL-28): > 100 µM (inactive)
GI50 (Malme-3M): > 100 µM (inactive)
GI50 (HOP-18): > 100 µM (inactive)
GI50 (UO-31): > 100 µM (inactive)
GI50 (SK-MEL-5): > 100 µM (inactive)
GI50 (HCC 2998): > 100 µM (inactive)
GI50 (KM12): > 100 µM (inactive)
GI50 (DLD-1): > 100 µM (inactive)
GI50 (A498): > 100 µM (inactive)
GI50 (EKVX): > 100 µM (inactive)
GI50 (SNB-75): > 100 µM (inactive)
GI50 (XF498): > 100 µM (inactive)
GI50 (SF-295): > 100 µM (inactive)
GI50 (OVCAR-5): > 100 µM (inactive)
GI50 (786-0): > 100 µM (inactive)
GI50 (HL-60): > 100 µM (inactive)
GI50 (SW-620): > 100 µM (inactive)
GI50 (SN12C): > 100 µM (inactive)
GI50 (NCI-H226): 27.5 µM (inactive)
GI50 (RPMI-8226): > 100 µM (inactive)
GI50 (M19-MEL): > 100 µM (inactive)
GI50 (NCI-H460): > 100 µM (inactive)
GI50 (HCT-15): > 100 µM
GI50 (HOP-62): > 100 µM (inactive)
GI50 (HCT-116): > 100 µM (inactive)

NC(=S)N/C=C1\C(=O)Oc2ccccc2C1=O
GI50 (RXF 393): 18.4 µM (inactive)
GI50 (OVCAR-8): 56.5 µM (inactive)
GI50 (SNB-78): 94.2 µM (inactive)
GI50 (OVCAR-3): 37.3 µM (inactive)
GI50 (SK-OV-3): 51.2 µM (inactive)
GI50 (SK-MEL-2): 22.6 µM (inactive)
GI50 (CAKI-1): 20.7 µM (inactive)
GI50 (HOP-92): 35.5 µM (inactive)
GI50 (OVCAR-4): > 100 µM (inactive)
GI50 (ACHN): 28.9 µM (inactive)
GI50 (HT-29): > 100 µM (inactive)
GI50 (DMS-273): > 100 µM (inactive)
GI50 (U-251): 43.8 µM (inactive)
GI50 (NCI-H522): 69.2 µM (inactive)
GI50 (LXFL 529): 85.7 µM (inactive)
GI50 (SNB-19): 68.5 µM (inactive)
GI50 (A549): 97.1 µM (inactive)
GI50 (NCI-H23): > 100 µM (inactive)
GI50 (MOLT-4): > 100 µM (inactive)
GI50 (SF-539): 34 µM (inactive)
GI50 (IGROV-1): 63.4 µM (inactive)
GI50 (M14): 48.5 µM (inactive)
GI50 (CCRF-CEM): > 100 µM (inactive)
GI50 (TK-10): 90.4 µM (inactive)
GI50 (LOX IMVI): > 100 µM (inactive)
GI50 (KM-20L2): > 100 µM (inactive)
GI50 (DMS-114): 48.4 µM (inactive)
GI50 (UACC-62): 47.2 µM (inactive)
GI50 (SF-268): 24.7 µM (inactive)
GI50 (K562): > 100 µM (inactive)
GI50 (UACC-257): > 100 µM (inactive)
GI50 (SK-MEL-28): > 100 µM (inactive)
GI50 (Malme-3M): 32.7 µM (inactive)
GI50 (HOP-18): 39.2 µM (inactive)
GI50 (UO-31): 27.5 µM (inactive)
GI50 (SK-MEL-5): 42.3 µM (inactive)
GI50 (HCC 2998): 66.8 µM (inactive)
GI50 (KM12): > 100 µM (inactive)
GI50 (DLD-1): 31.2 µM (inactive)
GI50 (A498): 51.4 µM (inactive)
GI50 (EKVX): > 100 µM (inactive)
GI50 (SNB-75): 14.1 µM (inactive)
GI50 (XF498): 32.3 µM (inactive)
GI50 (SF-295): > 100 µM (inactive)
GI50 (OVCAR-5): > 100 µM (inactive)
GI50 (786-0): 53.5 µM (inactive)
GI50 (HL-60): > 100 µM (inactive)
GI50 (SW-620): 75.5 µM (inactive)
GI50 (SN12C): 37.2 µM (inactive)
GI50 (NCI-H226): 21.9 µM (inactive)
GI50 (RPMI-8226): > 100 µM (inactive)
GI50 (M19-MEL): > 100 µM (inactive)
GI50 (NCI-H460): > 100 µM (inactive)
GI50 (HCT-15): 48 µM
GI50 (COLO 205): > 100 µM (inactive)
GI50 (HCT-116): 53.5 µM (inactive)
